The values below come from patent US8809372B2, “Pyridine derivatives” (Endo Pharmaceuticals, Inc., priority 2011, dated 2014).

Experiment [1] addresses T1, human CYP17 in H295R adrenocortical carcinoma cells (Homo sapiens, UniProt P05093).
T1 construct: H295R Adrenocortical carcinoma cells [NCI-H295A, ATCC Number CRL-2128, American Type Culture Collection; host or cells: H295R adrenocortical carcinoma cells
T1 sequence (P05093 1-508): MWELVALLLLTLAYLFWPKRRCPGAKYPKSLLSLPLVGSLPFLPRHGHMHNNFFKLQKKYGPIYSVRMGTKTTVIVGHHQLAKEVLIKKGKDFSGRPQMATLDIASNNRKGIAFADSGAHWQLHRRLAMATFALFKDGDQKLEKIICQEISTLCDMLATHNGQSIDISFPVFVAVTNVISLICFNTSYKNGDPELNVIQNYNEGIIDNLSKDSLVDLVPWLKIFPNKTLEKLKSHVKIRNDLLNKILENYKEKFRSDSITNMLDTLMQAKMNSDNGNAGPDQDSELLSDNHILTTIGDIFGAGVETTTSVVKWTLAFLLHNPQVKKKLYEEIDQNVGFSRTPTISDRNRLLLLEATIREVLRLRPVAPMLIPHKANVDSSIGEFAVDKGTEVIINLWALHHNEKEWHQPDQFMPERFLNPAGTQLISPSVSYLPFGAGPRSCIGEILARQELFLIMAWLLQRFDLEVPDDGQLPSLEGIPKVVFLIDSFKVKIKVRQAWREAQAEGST
Nature of the experiment: Cell-based human CYP17 inhibition assay, H295R cells. Conditions: 16 hours, read-out: CYP17 (human H295R adrenal cells). An outline of the steps: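 H295R cells or LNCaP cells stably transfected with full-length human CYP17A1 (30,000/well) incubated 16 h at 37 °C with ³H-17α-hydroxypregnenolone and compound (top 10 μM, 3-fold dilutions, up to 10 concentrations). Medium chloroform-extracted and charcoal-treated; aqueous-phase radioactivity counted by scintillation.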

Experiment [2] has as its target T2, rat CYP17 (rat testicular microsomes) (Rattus norvegicus, UniProt P11715).
T2 construct: Rat testis tissue was collected and disrupted with 30 strokes of a glass homogenizer; from tissue; host or cells: rat testis (microsomes)
T2 sequence (P11715 1-507): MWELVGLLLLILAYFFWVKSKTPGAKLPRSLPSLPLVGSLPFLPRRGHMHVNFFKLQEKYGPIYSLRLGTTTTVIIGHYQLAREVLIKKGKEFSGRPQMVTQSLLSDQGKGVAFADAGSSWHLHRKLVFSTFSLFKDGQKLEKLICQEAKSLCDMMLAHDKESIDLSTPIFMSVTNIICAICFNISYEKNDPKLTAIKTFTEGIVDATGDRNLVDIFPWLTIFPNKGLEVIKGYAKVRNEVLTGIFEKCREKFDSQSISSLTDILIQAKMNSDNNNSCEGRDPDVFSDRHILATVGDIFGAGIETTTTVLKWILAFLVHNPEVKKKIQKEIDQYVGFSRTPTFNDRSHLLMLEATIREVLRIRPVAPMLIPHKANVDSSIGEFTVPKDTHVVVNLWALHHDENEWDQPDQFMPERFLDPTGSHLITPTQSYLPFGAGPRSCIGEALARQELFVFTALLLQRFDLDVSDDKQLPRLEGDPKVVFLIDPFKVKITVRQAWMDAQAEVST
Nature of the experiment: CYP17 inhibition assay in rat testicular microsomes. Format: biochemical. In a few lines:
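Rat testicular microsomes (150–160 μg) or yeast microsomes expressing human CYP17 (1.7 pmol) react with ³H-17α-hydroxypregnenolone (1 μCi/reaction) and 325 μM NADPH in potassium phosphate buffer, pH 7.4. Compound is pre-incubated with substrate for 15 min, then the reaction runs 60 min at 37 °C. After chloroform extraction and charcoal treatment, aqueous radioactivity is measured by scintillation counting.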

With `CCC(O)(c1ccncc1)c1cnc(-c2cn[nH]c2)s1` (single isomer, unassigned; (-)) [Example 19, (−)-1-[2-(1H-pyrazol-4-yl)-1,3-thiazol-5-yl]-1-pyridin-4-ylpropan-1-ol], the IC50 in experiment [1] and in experiment [2] was less than 0.05 µM in each case.

For `Cn1cc(-c2ccc(C(C)(O)c3ccncc3)s2)ccc1=O` (single isomer, unassigned; (+)) [Example 16, (+)-5-(5-(1-hydroxy-1-(pyridin-4-yl)ethyl)thiophen-2-yl)-1-methylpyridin-2(1H)-one], the IC50 in experiment [1] and in experiment [2] was 0.05 to 0.2 µM each time.

As for `OC1(c2cnc(-c3ccc(F)cc3)s2)CCc2cnccc21` (stereo not drawn) [Example 59, 5-(2-(4-fluorophenyl)thiazol-5-yl)-6,7-dihydro-5H-cyclopenta[c]pyridin-5-ol], the IC50 in experiment [1] is 0.201 to 10 µM; in experiment [2], 0.05 to 0.2 µM.

In the case of `CC(N)(c1ccncc1)c1cnc(-c2ccc(F)cc2)s1` (stereo not drawn) [Example 68, 1-(2-(4-Fluorophenyl)thiazol-5-yl)-1-(pyridin-4-yl)ethanamine], the IC50 in experiment [1] was 0.05 to 0.2 µM; in experiment [2] it was less than 0.05 µM.

In the case of `CC(O)(c1ccncc1)c1cc(-c2ccc(F)cc2)on1` (stereo not drawn) [Example 50, 1-(5-(4-fluorophenyl)isoxazol-3-yl)-1-(pyridin-4-yl)ethanol], the IC50 in experiment [1] is 0.05 to 0.2 µM; in experiment [2], less than 0.05 µM.

Take `CC(O)(c1ccncc1)c1cnc(-c2ccc(C(F)(F)F)cc2)s1` (stereo not drawn) [Example 26, 1-(Pyridin-4-yl)-1-(2-(4-(trifluoromethyl)phenyl)thiazol-5-yl)ethanol]: the IC50 in experiment [1] was 0.05 to 0.2 µM; in experiment [2], less than 0.05 µM.
